The values below come from patent US12319913B2, “5-halouracil-modified microRNAs and their use in the treatment of cancer” (The Research Foundation for The State University of New York, priority 2018, dated 2025).

[5FU] = 5-fluorouracil base replacing uracil

Holding throughout (format): cell-based, human
Data set [1] relates to AsPC-1 pancreatic cancer cells. Briefly: Cell proliferation, AsPC-1. The settings on record: APSC-1; 50 nM, 25 nM, 12.5 nM, 6.25 nM, and 3.125 nM. The protocol: (§1) […] For reagent free transfection, cells were plated in 6 well plates at (1×10^5) cells per well. Twenty-four hours later 100 pmol miRNA (Control, miR-15a, Mimic-1) were diluted in Optimem (Thermo Fischer) and added to the plate. Media was changed after 24 hours. Media was supplemented with 10% fetal bovine serum (Thermo Fischer). Briefly, cells were cultured in growth media (DMEM/F12 supplemented with B27, 10 ng/mL bFGF, and 20 ng/mL EGF (Life Technologies) in ultra-low attachment flasks) for up to 6 days. The spheroid cells were maintained by collection through gentle centrifugation, dissociation to single cells and replating.
(§2) Cell proliferation assay: Twenty-four hours after transfection, cells were seeded in 96-well plates at a density of 2000 cells per well. The cell proliferation assay was performed on days 1 to 5 by incubating 10 μl WST-1 (Roche Applied Science, Mannheim, Germany) in the culture medium for 1 h and reading the absorbance at 450 and 630 nm. The cell proliferation rate was calculated by subtracting the […]. Experiments for the cell proliferation assay were performed at least three times. The O.D. was calculated by subtracting the absorbance at 630 nm from that at 450 nm. Proliferation experiments were performed three times.

Another data set relates to AGS stomach cancer cells. Nature of the data set: Cell proliferation, AGS. The settings on record: compared to negative controls. The protocol:
(§3) For transfections, 1×10^5 cells were plated in six-well plates and transfected with 100 nM of control non-specific miRNA (Thermo Fischer), a modified microRNA, or exogenous native microRNA after 24 hours using Oligofectamine (Thermo Fischer) following the manufacturer's protocols. For reagent free transfection, cells were plated in 6 well plates at (1×10^5) cells per well. Twenty-four hours later 100 pmol miRNA (Control, miR-15a, Mimic-1) were diluted in Optimem (Thermo Fischer) and added to the plate. Media was changed after 24 hours. Media was supplemented with 10% fetal bovine serum (Thermo Fischer). Briefly, cells were cultured in growth media (DMEM/F12 supplemented with B27, 10 ng/mL bFGF, and 20 ng/mL EGF (Life Technologies) in ultra-low attachment flasks) for up to 6 days. The spheroid cells were maintained by collection through gentle centrifugation, dissociation to single cells and replating.
as §2

For data set [2], the system named is Panc-1 pancreatic cancer cells. Briefly: Cell proliferation, Panc-1. Conditions: PANC-1; 50 nM, 25 nM, 12.5 nM, 6.25 nM, and 3.125 nM. Here is the method: as §1, §2
The test system of data set [3] is acute lymphocytic leukemia cell line (REH). Briefly: Cell proliferation, REH. The settings on record: 50 nM, 25 nM, 12.5 nM, 6.25 nM, and 3.125 nM.
The test system of data set [4] is SKBR3 breast cancer cells. Nature of the data set: Cell proliferation, SKBR3. Conditions: SKBR3, compared to negative controls. The protocol: as §3, §2
The test system of a further data set is A549 lung cancer cells. Briefly: Cell proliferation, A549. Conditions: A549, compared to negative controls. Here is the method: as §3, §2
For data set [5], the system named is Hs766T pancreatic cancer cells. Nature of the data set: Cell proliferation, Hs766T. The settings on record: compared to negative controls. The protocol: as §3, §2
Data set [6] relates to acute lymphocytic leukemia cell line (REH). Briefly: Cell proliferation, REH. The settings on record: compared to negative controls. Here is the method: as §3, §2
Data set [7] concerns MDA-MB-231 triple negative breast cancer cells. Briefly: MTT cell proliferation, MDA-MB-231, with or without oligofectamine. Conditions: for cell proliferation without delivery vehicle (no oligofectamine): MDA-MB-231, MTT assay. Here is the method:
as §3
Furthermore, to test whether or not the modified microRNAs of the present disclosure can be delivered directly to cells and taken up by the cancer cells without the use of transfer agents or vehicles (i.e., oligofectamine), MDA-MB-231 triple negative breast cancer cells were transfected with miR-NC (negative control), exogenous unmodified miR-200b or miR-489, 5-FU-miR-200b or modified miR-489 by using oligofectamine or without delivery vehicle. As shown in FIGS. 17A-17B and 20A, the effects of expression of the exemplary modified miRs tested on breast cancer cell proliferation were monitored by MTT assay for 6 days upon transfection or incubation.
(Tetrazolium assays rely on reduction of a dye to a coloured formazan, in cell work by metabolically active cells.)

The test system of data set [8] is HCT116 colon cancer cells. Briefly: WST-1 cell proliferation assay, HCT116. Conditions: HCT116, in words, vs controls. Here is the method: For transfections, […] (Thermo Fischer) following the manufacturer's protocols. For reagent free transfection, cells were plated in 6 well plates at (1×10^5) cells per well. Twenty-four hours later 100 pmol miRNA (Control, miR-15a, Mimic-1) were diluted in Optimem (Thermo Fischer) and added to the plate. Media was changed after 24 hours. Media was supplemented with 10% fetal bovine serum (Thermo Fischer). Briefly, cells were cultured in growth media (DMEM/F12 supplemented with B27, 10 ng/mL bFGF, and 20 ng/mL EGF (Life Technologies) in ultra-low attachment flasks) for up to 6 days. The spheroid cells were maintained by collection through gentle centrifugation, dissociation to single cells and replating.
as §2

On to “U^FAU^FU^FCAGGAAGGU^FGU^FU^FACU^FU^FAA (UAUUCAGGAAGGUGUUACUUAA; RNA, [5FU] at 1, 3, 4, 13, 15, 16, 19, 20, backbone not given here) [modified miR-506, miR-506 in which all (8) U bases are replaced by 5-fluorouracil]”, for which the “cell proliferation, dose dependence” value in data set [1] and in data set [2] was “inhibited in a dose dependent manner” throughout. Also, the “gastric cancer cell proliferation” value in the data set on AGS stomach cancer cells is recorded as “inhibited”. For the same substance, the “leukemia cancer cell proliferation, dose dependence” value in data set [3] is “inhibited in a dose dependent manner”. The “breast cancer cell proliferation” value in data set [4] is given as “inhibited”. Also, in the data set with A549 lung cancer cells, the “lung cancer cell proliferation” value is given as “inhibited”. Moreover, the “pancreatic cancer cell proliferation” value in data set [5] is reported as “inhibited”. Besides, the “leukemia cancer cell proliferation” value in [6] was “inhibited”.

In the case of “AU^FCCU^FU^FGCUAU^FCU^FGGGU^FGCU^FA (AUCCUUGCUAUCUGGGUGCUA; RNA, [5FU] at 2, 5, 6, 11, 13, 17, 20, backbone not given here) [modified miR-502]”, the “cell proliferation, dose dependence” value in data set [1] and in data set [2] was “inhibited in a dose dependent manner” throughout. Moreover, the “gastric cancer cell proliferation” value in the data set on AGS stomach cancer cells is “inhibited”. Further, the “leukemia cancer cell proliferation, dose dependence” value in data set [3] is recorded as “inhibited in a dose dependent manner”. Also, the “breast cancer cell proliferation” value in data set [4] was “inhibited”. Also, the “lung cancer cell proliferation” value in the data set with A549 lung cancer cells is recorded as “inhibited”. Moreover, the “pancreatic cancer cell proliferation” value in data set [5] is reported as “inhibited”. In addition, in data set [6], the “leukemia cancer cell proliferation” value was “inhibited”.

Regarding “U^FGU^FAACAGCAACU^FCCAU^FGU^FGGA (UGUAACAGCAACUCCAUGUGGA; RNA, [5FU] at 1, 3, 13, 17, 19, backbone not given here) [modified miR-194]”, the “cell proliferation, dose dependence” value in data set [1] and in data set [2] was “inhibited in a dose dependent manner” throughout. In addition, in the data set with AGS stomach cancer cells, the “gastric cancer cell proliferation” value is on record as “inhibited”. For the same substance, the “leukemia cancer cell proliferation, dose dependence” value in data set [3] is reported as “inhibited in a dose dependent manner”. Further, in data set [4], the “breast cancer cell proliferation” value is “inhibited”. For the same substance, in the data set on A549 lung cancer cells, the “lung cancer cell proliferation” value is reported as “inhibited”. In data set [5], the “pancreatic cancer cell proliferation” value was “inhibited”. For the same substance, the “leukemia cancer cell proliferation” value in [6] is listed as “inhibited”.

Consider “UAAUACUGCCUGGUAAUGAUGA (chemistry not fully specified; listed as Homo sapiens) [native miR-200b, 21]”, for which the results for the “cell proliferation without delivery vehicle (no oligofectamine)” value in data set [7] and in data set [7] (listed as exogenous miR-200b) were “had no effects on proliferation” and “did not inhibit cell growth”, respectively. Moreover, in [7] (MDA-MB-231, MTT assay for 6 days, vs miR-NC), the “cell proliferation in the presence of oligofectamine” value is listed as “reduced the rate of cell proliferation”.

On to “U^FAACACU^FGU^FCU^FGGU^FAACGAU^FGU^F (UAACACUGUCUGGUAACGAUGU; U replaced by 5-fluorouracil, chemistry not fully specified) [modified miR-200a, miR-200a in which all (7) U bases are replaced by 5-fluorouracil]”, for which the “cell proliferation, dose dependence” value in data set [1] and in data set [2] was “inhibited in a dose dependent manner” in each case. Besides, in the data set with AGS stomach cancer cells, the “gastric cancer cell proliferation” value is recorded as “inhibited”. In addition, the “leukemia cancer cell proliferation, dose dependence” value in data set [3] is on record as “inhibited in a dose dependent manner”. The “breast cancer cell proliferation” value in data set [4] is on record as “inhibited”. Besides, in the data set on A549 lung cancer cells, the “lung cancer cell proliferation” value is recorded as “inhibited”. In data set [5], the “pancreatic cancer cell proliferation” value is “inhibited”. The “leukemia cancer cell proliferation” value in [6] was “inhibited”.

Turning to “U^FAAU^FACU^FGCCGGGU^FAAU^FGAU^FGGA [modified miR-200c]”, the “cell proliferation, dose dependence” value in data set [1] and in data set [2] was “inhibited in a dose dependent manner” each time. In the data set with AGS stomach cancer cells, the “gastric cancer cell proliferation” value is “inhibited”. The “leukemia cancer cell proliferation, dose dependence” value in [3] is given as “inhibited in a dose dependent manner”. In addition, the “breast cancer cell proliferation” value in data set [4] is recorded as “inhibited”. In addition, in the data set with A549 lung cancer cells, the “lung cancer cell proliferation” value is “inhibited”. In data set [5], the “pancreatic cancer cell proliferation” value is “inhibited”. In addition, the “leukemia cancer cell proliferation” value in data set [6] was “inhibited”.

As to “CAGU^FGGUUUUACCCU^FAUGGU^FAG (CAGUGGUUUUACCCUAUGGUAG; RNA, [5FU] at 4, 15, 20, backbone not given here) [modified miR-140 [SEQ ID NO. 9], miR-140 in which certain (3) U bases are replaced by 5-fluorouracil]”, the “inhibition of colon cancer cell proliferation” value in data set [8] was “increased ability to inhibit colorectal cancer cell proliferation”.

In the case of “U^FGGCAGU^FGU^FCU^FU^FAGCU^FGGU^FU^FGU^F (UGGCAGUGUCUUAGCUGGUUGU; all U replaced by 5-fluorouracil, chemistry not fully specified) [modified miR-34, miR-34 in which all (9) U bases are replaced by 5-fluorouracil]”, the “cell proliferation, dose dependence” value in data set [1] and in [2] was “inhibited in a dose dependent manner” each time. The “gastric cancer cell proliferation” value in the data set on AGS stomach cancer cells is “inhibited”. Moreover, the “leukemia cancer cell proliferation, dose dependence” value in data set [3] is “inhibited in a dose dependent manner”. The “breast cancer cell proliferation” value in [4] is reported as “inhibited”. For the same substance, the “lung cancer cell proliferation” value with A549 lung cancer cells is listed as “inhibited”. Moreover, in [5], the “pancreatic cancer cell proliferation” value was “inhibited”. Further, the “leukemia cancer cell proliferation” value in [6] is reported as “inhibited”.

As for “CAGU^FGGU^FU^FU^FU^FACCCU^FAU^FGGU^F AG (CAGUGGUUUUACCCUAUGGUAG; RNA, [5FU] at 4, 7, 8, 9, 10, 15, 17, 20, backbone not given here) [modified miR-140 [SEQ ID NO. 16]]”, the “cell proliferation, dose dependence” value in data set [1] and in data set [2] was “inhibited in a dose dependent manner” throughout. Moreover, in the data set with AGS stomach cancer cells, the “gastric cancer cell proliferation” value was “inhibited”. Moreover, in data set [3], the “leukemia cancer cell proliferation, dose dependence” value was “inhibited in a dose dependent manner”. The “breast cancer cell proliferation” value in data set [4] is “inhibited”. The “lung cancer cell proliferation” value in the data set on A549 lung cancer cells is “inhibited”. In data set [5], the “pancreatic cancer cell proliferation” value is recorded as “inhibited”. Moreover, the “leukemia cancer cell proliferation” value in data set [6] was “inhibited”.
